# Assay results from patent US20100029619A1, “FUSED HETEROCYCLIC COMPOUND” (TAKEDA PHARMACEUTICAL COMPANY LIMTED, priority 2006, published 2010).
row,Compound,melting point
1,"CNC(=O)CC(C)(C)c1ccc(C(=O)Nc2cn3cc(Cl)ccc3n2)cc1 [Example 128, N-(6-chloroimidazo[1,2-a]pyridin-2-yl)-4-[1,1-dimethyl-3-(methylamino)-3-oxopropyl]benzamide]",228 to 230 °C
2,"CCC(=O)NC(C)(C)c1ccc(C(=O)Nc2cn3cc(Cl)ccc3n2)cc1 [Example 129, N-(6-chloroimidazo[1,2-a]pyridin-2-yl)-4-[1-methyl-1-(propionylamino)ethyl]benzamide]",249 to 252 °C
3,"CC(C)(C#N)c1ccc(C(=O)Nc2cn3cc(-n4ccnc4)ccc3n2)cc1 [Example 130, 4-(1-cyano-1-methylethyl)-N-[6-(1H-imidazol-1-yl)imidazo[1,2-a]pyridin-2-yl]benzamide]",241 to 244 °C
4,"CCN(c1ccc(C(=O)Nc2cn3cc(Cl)ccc3n2)cc1)S(C)(=O)=O [Example 131, N-(6-chloroimidazo[1,2-a]pyridin-2-yl)-4-[ethyl(methylsulfonyl)amino]benzamide]",245 to 247 °C
5,"CC(=O)NCC(C)(C)c1ccc(C(=O)Nc2cn3cc(-n4ccnc4)ccc3n2)cc1 [Example 135, 4-[2-(acetylamino)-1,1-dimethylethyl]-N-[6-(1H-imidazol-1-yl)imidazo[1,2-a]pyridin-2-yl]benzamide]",242 to 244 °C
6,"CCCNCC(C)(C)c1ccc(C(=O)Nc2cn3cc(-n4ccnc4)ccc3n2)cc1 [Example 136, 4-[1,1-dimethyl-2-(propylamino)ethyl]-N-[6-(1H-imidazol-1-yl)imidazo[1,2-a]pyridin-2-yl]benzamide]",162 to 164 °C
7,"CC(C)(C)c1ccc(C(=O)Nc2cn3nc(-n4cnc(CC#N)c4)ccc3n2)cc1 [Example 142, 4-tert-butyl-N-{6-[4-(cyanomethyl)-1H-imidazol-1-yl]imidazo[1,2-b]pyridazin-2-yl}benzamide]",314 to 316 °C (dec.)

# Second part, the compound after the results:
row,melting point,Compound
1,254 to 255 °C,"Cc1cn(-c2ccc3nc(NC(=O)c4ccc(C(C)(C)C)cc4)cn3n2)c(C)n1 [Example 143, 4-tert-butyl-N-[6-(2,4-dimethyl-1H-imidazol-1-yl)imidazo[1,2-b]pyridazin-2-yl]benzamide]"
2,220 to 221 °C,"CCc1nc(C)cn1-c1ccc2nc(NC(=O)c3ccc(C(C)(C)C)cc3)cn2n1 [Example 144, 4-tert-butyl-N-[6-(2-ethyl-4-methyl-1H-imidazol-1-yl)imidazo[1,2-b]pyridazin-2-yl]benzamide]"
3,298 to 301 °C,"CC(C)(C)c1ccc(C(=O)Nc2cn3nc(-n4cnc(CO)c4)ccc3n2)cc1 [Example 145, 4-tert-butyl-N-{6-[4-(hydroxymethyl)-1H-imidazol-1-yl]imidazo[1,2-b]pyridazin-2-yl}benzamide]"
4,281 to 282 °C,"CC(C)(C)c1ccc(C(=O)Nc2cn3nc(-n4cnc(Cl)c4Cl)ccc3n2)cc1 [Example 146, 4-tert-butyl-N-[6-(4,5-dichloro-1H-imidazol-1-yl)imidazo[1,2-b]pyridazin-2-yl]benzamide]"
5,306 to 307 °C,"CC(C)(C)c1ccc(C(=O)Nc2cn3nc(-n4cnc(Br)c4)ccc3n2)cc1 [Example 147, N-[6-(4-bromo-1H-imidazol-1-yl)imidazo[1,2-b]pyridazin-2-yl]-4-tert-butylbenzamide]"
6,267 to 268 °C,"CC(C)(C)c1ccc(C(=O)Nc2cn3nc(N)ccc3n2)cc1 [Example 148, N-(6-aminoimidazo[1,2-b]pyridazin-2-yl)-4-tert-butylbenzamide]"
7,237 to 238 °C,"CC(=O)c1ccc2nc(NC(=O)c3ccc(C(C)(C)C)cc3)cn2n1 [Example 151, N-(6-acetylimidazo[1,2-b]pyridazin-2-yl)-4-tert-butylbenzamide]"
8,222 to 223 °C,"CC(C)(C)c1ccc(C(=O)Nc2cn3nc(NCc4ccncc4)ccc3n2)cc1 [Example 159, 4-tert-butyl-N-{6-[(pyridin-4-ylmethyl)amino]imidazo[1,2-b]pyridazin-2-yl}benzamide]"
